# Measurements from US20030190692A1, “Method for measuring the activity of the blood clotting factor XIIIA” (priority 2000, published 2003).
# Assays:
# FXIIIa [1] = conditions: animal models; Leidy et al. 1990; cited from earlier work
# FXIIIa [2] = target: FXIIIa (Homo sapiens, UniProt P00488); assay: biochemical
# FXIIIa (Homo sapiens, UniProt P00488), sequence (P00488 39-732 limits assumed): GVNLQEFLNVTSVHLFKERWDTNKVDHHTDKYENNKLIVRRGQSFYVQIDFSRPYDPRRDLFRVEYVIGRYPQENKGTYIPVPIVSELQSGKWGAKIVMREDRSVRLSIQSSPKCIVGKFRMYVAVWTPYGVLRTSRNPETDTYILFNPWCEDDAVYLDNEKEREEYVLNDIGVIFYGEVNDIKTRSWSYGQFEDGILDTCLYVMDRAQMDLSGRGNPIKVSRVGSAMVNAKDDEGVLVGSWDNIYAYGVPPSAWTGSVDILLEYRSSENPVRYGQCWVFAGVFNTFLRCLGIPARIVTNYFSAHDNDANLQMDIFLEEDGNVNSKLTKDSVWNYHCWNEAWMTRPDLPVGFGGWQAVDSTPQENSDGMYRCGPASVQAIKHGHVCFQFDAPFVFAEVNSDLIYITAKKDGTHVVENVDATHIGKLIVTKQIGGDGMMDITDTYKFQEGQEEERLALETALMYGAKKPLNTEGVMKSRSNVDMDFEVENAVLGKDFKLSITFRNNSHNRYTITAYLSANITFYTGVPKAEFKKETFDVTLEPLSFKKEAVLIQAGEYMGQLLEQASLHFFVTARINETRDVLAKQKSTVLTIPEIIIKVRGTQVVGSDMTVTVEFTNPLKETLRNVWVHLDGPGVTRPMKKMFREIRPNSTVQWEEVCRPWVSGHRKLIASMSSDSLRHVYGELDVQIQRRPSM
Structure (SMILES),Effect on thrombolysis by a plasminogen activator (FXIIIa [1]),IC50 (FXIIIa [2]) [µM]
CC(=O)CSc1n[n+]2c(C)csc2s1.[O-][Cl+3]([O-])([O-])[O-] [L722151],improve the thrombolysis,
O=C(O)CI [iodoacetic acid],,147
